“Also recorded” adds a separate entry of the source. Read-outs that look alike come from different tables or passages of the source. Values belong to the substance of their own block, whether it stands above or below them.
Key:
Solubility assays = format: physicochemical
Procedure: (§1) Solubility assays were performed to determine the most compatible solvent for both peptides before in vitro evaluation of GPC3 binding, favoring aqueous solvents over cytotoxic organic solvents such as dimethylformamide (DMF) and dimethyl sulfoxide (DMSO).
FIG. 1. Cy5.5-conjugated TJ12P1 is peptide insoluble in aqueous buffer. Bright field images of Cy5.5-TJ12P1 peptides in solution. In (A, B), peptide Cy5.5-TJ12P1 is undissolved in 20% DMSO/80% ddH2O and 100% ddH2O at 0.3 mg/mL, respectively. DMSO, dimethyl sulfoxide.

human GPC3 = target: T1, human GPC3 (Homo sapiens, UniProt P51654); experiment: Biolayer interferometry to immobilized recombinant biotinylated GPC3; format: binding; conditions: unlabeled peptide, 1 × PBS with 0.02% Tween-20
T1 construct: biotin (biotinylated); purchased Acro Biosystems
Procedure: (§2) Biotinylated human GPC3 protein (Acro Biosystems, Newark, DE) was diluted to 5 μg/mL in assay buffer (1 × PBS with 0.02% Tween-20) in a 96-well plate and loaded onto streptavidin biosensors (FortéBio, Menlo Park, CA). Each unconjugated peptide was diluted in assay buffer at four concentrations (1000, 500, 250, and 125 nM for TJ12P1; and 500, 250, 125, and 62.5 nM for KKK-L5) and loaded into the 96-well plate in a final volume of 200 μL. Specific and nonspecific binding wells were made for each concentration. The plate was run on an Octet Red96 system (FortéBio) and analyzed with FortéBio Octet Data Analysis software (v.11).

GPC3 [1] = experiment: Cell-based and cell-free GPC3 binding assays, overall result; parameters: species or system human; conditions: for specific binding (overall): concentrations in the range of their reported KD; for selectivity for GPC3 (overall): concentrations near the reported KD; for binding to GPC3 (overall): fluorescently labeled and unlabeled versions, concentrations in the range of their published KD (0.3–1 μM)
Procedure: (§3) Approximately 1 × 10^6 cells per sample tube were harvested, washed once with ice-cold staining buffer (1% bovine serum albumin in 1 × phosphate buffered saline [PBS]), and resuspended in 60 μL staining buffer. Cells were then distributed into control and experimental vials. Unstained and single-color control samples were made. Experimental samples were stained with PE-conjugated anti-GPC3 antibody (R&D Systems, Minneapolis, MN), PE-conjugated IgG2 isotype control (Biolegend, San Diego, CA), conjugated specific or nonspecific peptide and incubated for 1–2 h on ice in the dark. Data were collected using a BD FACSCalibur cytometer running BD CellQuest Pro software (v6.0), and results were analyzed with FlowJo (v10.4.2). All experiments represent biological replicates (n = 3).
as §2

GPC3 [2] = conditions: cited from earlier work
Text: Table 1. […] Several full-length antibodies, antibody fragments, and peptides for imaging and/or therapeutic use have been developed for GPC3 with varying degrees of success (Table 1).[8–17] […] To rule out the possibility that fluorophore modification of TJ12P1 interfered with its abil ... || (+ 2 further places)

[3] = cited from earlier work
Procedure: as §1, with “(DMSO). […] Sonication and vortexin ... || This study has a few limitations.” for “(DMSO).”

[4] = target: Glypican 3 (Homo sapiens) (UniProt P51654); experiment: surface plasmon resonance; conditions: cited from earlier work
[5] = Hydrophobic residue content
[6] = system: G1, HepG2, and A431 cells; experiment: Flow cytometry, binding compared across A431, G1 and HepG2 cells; format: cell-based, human; conditions: 1 h, n = 3
Procedure: (§4) A431, a human epidermoid carcinoma GPC3^− cell line, and A431-GPC3^+ (G1), a transfected A431 cell line engineered to stably express human GPC3, were both obtained from Dr. M.H. (National Cancer Institute, Bethesda, MD).[12] HepG2 (GPC3^+ liver cancer cell line) was obtained from ATCC (Manassas, VA). All cell lines were cultured in DMEM (Life Technologies, Carlsbad, CA) supplemented with 10% FetaPlex (Gemini Bio-Products, West Sacramento, CA) according to supplier's protocols. All cell lines tested negative for mycoplasma in monthly tests and were used for experiments within 10 passages (HepG2) or 15 passages (A431 and G1).
as §3

HepG2 cells = experiment: Flow cytometry, HepG2 (GPC3-positive) cells; format: cell-based; conditions: 300 nM, 1 h, n = 3
Procedure: as §4
as §3, with “All experiments represent biological replicates (n = 3).” left out

[7] = target: Glypican 3 (Homo sapiens) (UniProt P51654); conditions: cited from earlier work

T1 sequence (P51654 25-580): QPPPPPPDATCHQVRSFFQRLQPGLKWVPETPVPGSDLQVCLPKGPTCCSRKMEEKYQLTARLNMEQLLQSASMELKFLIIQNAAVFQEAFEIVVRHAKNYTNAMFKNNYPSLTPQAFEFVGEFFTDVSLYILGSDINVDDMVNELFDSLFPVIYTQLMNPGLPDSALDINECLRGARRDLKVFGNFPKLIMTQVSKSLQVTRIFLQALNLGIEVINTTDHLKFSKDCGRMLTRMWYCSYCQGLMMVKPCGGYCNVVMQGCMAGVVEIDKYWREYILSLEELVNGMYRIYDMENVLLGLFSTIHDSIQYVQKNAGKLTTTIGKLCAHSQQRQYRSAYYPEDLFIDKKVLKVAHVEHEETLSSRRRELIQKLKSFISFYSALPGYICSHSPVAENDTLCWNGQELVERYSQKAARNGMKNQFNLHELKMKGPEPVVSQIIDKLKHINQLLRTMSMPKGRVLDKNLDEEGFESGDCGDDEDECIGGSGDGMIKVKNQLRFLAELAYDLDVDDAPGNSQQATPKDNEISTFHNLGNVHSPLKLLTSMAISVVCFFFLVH
Chain of Glypican 3 (Homo sapiens) (P51654 359-554): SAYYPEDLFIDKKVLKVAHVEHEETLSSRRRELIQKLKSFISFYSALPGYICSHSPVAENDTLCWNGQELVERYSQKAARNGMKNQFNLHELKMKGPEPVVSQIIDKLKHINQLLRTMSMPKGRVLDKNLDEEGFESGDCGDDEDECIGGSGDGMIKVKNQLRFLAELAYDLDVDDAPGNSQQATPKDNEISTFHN

- solubility (Solubility assays; aqueous solution, record 2): poor solubility in aqueous solutions
- KD by BLI (human GPC3; 125–1000 nM): no KD could be calculated
Substance: DHLASLWWGTEL [TJ12P1]
- solubility (Solubility assays; aqueous solution): poor solubility in aqueous solution
- BLI concentration-dependent binding to GPC3 (human GPC3; 125–1000 nM, recombinant biotinylated human GPC3 on streptavidin biosensors): failed to demonstrate concentration-dependent binding behavior
- specific binding (overall) (GPC3 [1]): do not bind specifically
- selectivity for GPC3 (overall) (GPC3 [1]): neither TJ12P1 nor L5 variant demonstrates selectivity for GPC3
- binding to GPC3 (overall) (GPC3 [1]): neither fluorescently labeled nor unlabeled versions tested can bind to GPC3
- Kd (GPC3 [2]; with Cy5.5, ref [9] (Zhu et al.)): 390 nM

- solubility (Solubility assays; ddH2O, 0.5 mg/mL): soluble in ddH2O
- KD by BLI (human GPC3; 62.5–500 nM): no KD could be calculated
Substance: KKK-RLNVGGTYFLTTRQ [KKK-L5, variant of the L5 peptide with three lysine residues]
- BLI binding to GPC3 (human GPC3; 62.5–500 nM, recombinant biotinylated human GPC3 on streptavidin biosensors): absence of specific binding to GPC3; also recorded: failed to demonstrate concentration-dependent binding behavior
- specific binding (overall) (GPC3 [1]): do not bind specifically
- selectivity for GPC3 (overall) (GPC3 [1]): neither TJ12P1 nor L5 variant demonstrates selectivity for GPC3
- solubility ([3]; aqueous solution, compared to the original L5 peptide, ref [23] (Han et al.)): higher solubility in aqueous solution

Substance: L5
- Kd [4]: 44.7 nM

- solubility (Solubility assays; aqueous solution): poor solubility in aqueous solutions
- hydrophobic residues, share of sequence ([5]; four out of the 14 residues): 28.5%
- hydrophobic residues, number ([5]; out of the 14 residues): Four
Substance: RLNVGGTYFLTTRQ [L5, previously published GPC3-targeting peptide; original L5 not evaluated in this study, reference compound]
- binding to GPC3 (overall) (GPC3 [1]): neither fluorescently labeled nor unlabeled versions tested can bind to GPC3
- solubility ([3]; original L5 peptide, as reported in literature): poor solubility

Substance: Sulfo-Cy5-DHLASLWWGTEL [sulfo-Cy5-TJ12P1, sulfo-Cy5-labeled variant of TJ12P1]
- solubility (Solubility assays; 0.15 M NH4OAc): appeared to be soluble
- binding, G1 vs HepG2 vs A431 ([6]; 325 nM, flow cytometry): no significant difference in binding between G1, HepG2, and A431 cells; also recorded: nonspecific association of TJ12P1 to all cell lines

Substance: Sulfo-Cy5-KKKRLNVGGTYFLTTRQ [sulfo-Cy5-KKK-L5, sulfo-Cy5-conjugated KKK-L5]
- solubility (Solubility assays; ddH2O, 0.5 mg/mL): soluble in ddH2O
- binding, A431 vs HepG2 and G1 (histogram shift) ([6]; 300 nM, flow cytometry): bound nonspecifically to GPC3, as the observed histogram shift is identical in the A431 (GPC3^−) and the HepG2 and G1 (GPC3^+) cells

Substance: Sulfo-Cy5-KKKYTRFLGTVGNRLTQ [sulfo-Cy5-KKK-L5 scramble, sulfo-Cy5-labeled scrambled variant of KKK-L5]
- binding (MFI) compared to specific peptide (sulfo-Cy5-KKK-L5) ([6]; 300 nM, all three cell lines, p < 0.05): more binding; also recorded: binds better to all cell lines than the specific peptide
- difference in staining compared to sulfo-Cy5-KKK-L5 (HepG2 cells; high-staining HepG2 population (Hi), p < 0.001): statistically significant
- difference in staining compared to sulfo-Cy5-KKK-L5 (HepG2 cells; low-staining HepG2 population (Lo), p < 0.005): statistically significant

Substance: Sulfo-Cy5-WLSHLGDLTWEA [sulfo-Cy5-TJ12P1 scrambled peptide, sulfo-Cy5-labeled scrambled variant of TJ12P1]
- binding compared to sulfo-Cy5-TJ12P1 ([6]; 325 nM, all GPC3+ cell lines (G1, HepG2), flow cytometry, p = 0.02): significantly increased binding in all GPC3^+ cell lines

Substance: TJ12P1
- Kd [7]: 390 nM

Substance: WLSHLGDLTWEA [TJ12P1 scramble, scrambled variant of TJ12P1, nonspecific control]
- binding (MFI) compared to specific peptide (sulfo-Cy5-TJ12P1) ([6]; 325 nM, all cell lines tested, p < 0.05): more binding to all cell lines tested

Substance: hGC33: published anti-GPC3 targeting moiety, humanized
- Kd (GPC3 [2]; humanized: Yes, ref [16]): 0.67 nM

Source: paper PMC6802730, “In Vitro Performance of Published Glypican 3-Targeting Peptides TJ12P1 and L5 Indicates Lack of Specificity and Potency” (Cancer Biotherapy & Radiopharmaceuticals, 2019)
